Experimental data taken from patent publication US20260356841A1, “HETEROCYCLIC PYRIDINONE COMPOUNDS AS TRIGGERING RECEPTOR EXPRESSED ON MYELOID CELLS 2 AGONISTS AND METHODS OF USE” (Vigil Neuroscience, Inc., priority 2023, published 2026).

Target: T1, human TREM2 (Homo sapiens, UniProt Q9NZC2)
T1 construct: expressed in transfected cells; host or cells: HEK293T (HEK293T-hTREM2 cells)
Assay: TREM2 agonist potency by cellular phosphorylation of Spleen Tyrosine Kinase (Syk), AlphaLisa, HEK293T-hTREM2 cells
Type: cell-based
Details: hTREM2 EC50 Data (HEK293 Cells); Syk phosphorylation, AlphaLisa; read-out: hTREM2 EC50
Outline: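 HEK293T cells co-expressing human TREM2 and DAP12, plated 20–24 h before use. Compounds applied 45 min at room temperature in assay buffer, then cells lysed and phospho-Syk quantified by AlphaLisa. Percent activation from a standard curve; EC50 from a four-parameter variable-slope fit.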

T1 sequence (Q9NZC2 19-230): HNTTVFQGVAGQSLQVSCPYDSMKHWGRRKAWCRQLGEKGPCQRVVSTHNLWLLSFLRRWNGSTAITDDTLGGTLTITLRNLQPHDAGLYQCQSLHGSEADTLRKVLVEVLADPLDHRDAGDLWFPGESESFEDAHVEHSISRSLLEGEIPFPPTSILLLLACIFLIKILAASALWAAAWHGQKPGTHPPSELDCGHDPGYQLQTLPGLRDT
T1 sequence (O43914 22-113 partner): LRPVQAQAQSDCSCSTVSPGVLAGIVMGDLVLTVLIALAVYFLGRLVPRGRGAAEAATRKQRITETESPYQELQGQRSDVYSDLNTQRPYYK

Row | EC50 | Compound
1 | < 100 nM | Cc1nc2nc(N3C[C@@H](C)O[C@@H](c4ccc(=O)n(C)c4)C3)nc(C34CC(C#N)(C3)C4)c2nc1C [Example 205, 3-[6,7-dimethyl-2-[(2R,6S)-2-methyl-6-(1-methyl-6-oxo-3-pyridyl)morpholin-4-yl]pteridin-4-yl]bicyclo[1.1.1]pentane-1-carbonitrile]
2 | < 100 nM | C=CCN(CC=C)n1cc([C@H]2C[C@@H](c3nc(C45CC(C(F)(F)F)(C4)C5)c4nc(C)c(C)nc4n3)CCO2)ccc1=O [Example 206, 1-(diallylamino)-5-[(2R,4S)-4-[6,7-dimethyl-4-[3-(trifluoromethyl)-1-bicyclo[1.1.1]pentanyl]pteridin-2-yl]tetrahydropyran-2-yl]pyridin-2-one]
3 | < 100 nM | C=CCNn1cc([C@H]2C[C@@H](c3nc(C45CC(C(F)(F)F)(C4)C5)c4nc(C)c(C)nc4n3)CCO2)ccc1=O [Example 207, 1-(allylamino)-5-[(2R,4S)-4-[6,7-dimethyl-4-[3-(trifluoromethyl)-1-bicyclo[1.1.1]pentanyl]pteridin-2-yl]tetrahydropyran-2-yl]pyridin-2-one]
4 | < 100 nM | CC(C)=Nn1cc([C@H]2C[C@@H](c3nc(C45CC(C(F)(F)F)(C4)C5)c4cc(C(F)(F)F)c(C)nc4n3)CCO2)ccc1=O [Example 208, 5-((2R,4S)-4-(7-methyl-6-(trifluoromethyl)-4-(3-(trifluoromethyl)bicyclo[1.1.1]pentan-1-yl)pyrido[2,3-d]pyrimidin-2-yl)tetrahydro-2H-pyran-2-yl)-1-(propan-2-ylideneamino)pyridin-2 (1H)-one]
5 | < 100 nM | Cc1nc2nc([C@H]3CCO[C@@H](c4ccc(=O)n(N5CCCC5)c4)C3)nc(C34CC(C(F)(F)F)(C3)C4)c2nc1C [Example 209, 5-[(2R,4S)-4-[6,7-dimethyl-4-[3-(trifluoromethyl)-1-bicyclo[1.1.1]pentanyl]pteridin-2-yl]tetrahydropyran-2-yl]-1-pyrrolidin-1-yl-pyridin-2-one]
6 | < 100 nM | Cc1nc2nc([C@H]3CCO[C@@H](c4ccc(=O)n(N5CC=CC5)c4)C3)nc(C34CC(C(F)(F)F)(C3)C4)c2nc1C [Example 210, 1-(2,5-dihydropyrrol-1-yl)-5-[(2R,4S)-4-[6,7-dimethyl-4-[3-(trifluoromethyl)-1-bicyclo[1.1.1]pentanyl]pteridin-2-yl]tetrahydropyran-2-yl]pyridin-2-one]
7 | < 100 nM | CCCN(CCC)n1cc([C@H]2C[C@@H](c3nc(C45CC(C(F)(F)F)(C4)C5)c4nc(C)c(C)nc4n3)CCO2)ccc1=O [Example 211, 5-[(2R,4S)-4-[6,7-dimethyl-4-[3-(trifluoromethyl)-1-bicyclo[1.1.1]pentanyl]pteridin-2-yl]tetrahydropyran-2-y1]-1-(dipropylamino)pyridin-2-one]
8 | < 100 nM | CCCNn1cc([C@H]2C[C@@H](c3nc(C45CC(C(F)(F)F)(C4)C5)c4nc(C)c(C)nc4n3)CCO2)ccc1=O [Example 212, 5-[(2R,4S)-4-[6,7-dimethyl-4-[3-(trifluoromethyl)-1-bicyclo[1.1.1]pentanyl]pteridin-2-yl]tetrahydropyran-2-yl]-1-(propylamino)pyridin-2-one]
9 | < 100 nM | C=CC(=O)Nn1cc([C@H]2C[C@@H](c3nc(C45CC(C(F)(F)F)(C4)C5)c4nc(C)c(C)nc4n3)CCO2)ccc1=O [Example 213, N-[5-[(2R,4S)-4-[6,7-dimethyl-4-[3-(trifluoromethyl)-1-bicyclo[1.1.1]pentanyl]pteridin-2-yl]tetrahydropyran-2-yl]-2-oxo-1-pyridyl]prop-2-enamide]
10 | < 100 nM | Cc1nc2nc([C@H]3CCO[C@@H](c4ccc(=O)n(NCC(F)F)c4)C3)nc(C34CC(C(F)(F)F)(C3)C4)c2nc1C [Example 214, 1-((2,2-difluoroethyl)amino)-5-((2R,4S)-4-(6,7-dimethyl-4-(3-(trifluoromethyl)bicyclo[1.1.1]pentan-1-yl)pteridin-2-yl)tetrahydro-2H-pyran-2-yl)pyridin-2(1H)-one]
11 | < 100 nM | Cc1nc2nc([C@H]3CCO[C@@H](c4ccc(=O)n(N5CC6C(C5)C6(F)F)c4)C3)nc(C34CC(C(F)(F)F)(C3)C4)c2nc1C (stereo partly drawn) [Example 215, 1-(6,6-difluoro-3-azabicyclo[3.1.0]hexan-3-yl)-5-[(2R,4S)-4-[6,7-dimethyl-4-[3-(trifluoromethyl)-1-bicyclo[1.1.1]pentanyl]pteridin-2-yl]tetrahydropyran-2-yl]pyridin-2-one]
12 | < 100 nM | Cc1nc2c(C34CC(C(F)(F)F)(C3)C4)nc(N3C[C@@H](C)O[C@@H](c4ccc(=O)n(C5CC5)c4)C3)nc2c(=O)n1C [Example 219]
13 | < 100 nM | Cc1cc2c(C34CC(C(F)(F)F)(C3)C4)nc([C@H]3CCO[C@@H](c4ccc(=O)n(C)c4)C3)nc2nc1C [Example 324]
14 | < 100 nM | Cc1nc2nc([C@H]3CCO[C@@H](c4ccc(=O)n(C)c4)C3)nc(C34CC(C(F)(F)F)(C3)C4)c2cc1C(F)(F)F [Example 326, 1-methyl-5-[(2R,4S)-4-[7-methyl-6-(trifluoromethyl)-4-[3-(trifluoromethyl)-1-bicyclo[1.1.1]pentanyl]pyrido[2,3-d]pyrimidin-2-yl]tetrahydropyran-2-yl]pyridin-2-one]
15 | < 100 nM | Cc1nc2nc([C@H]3CCO[C@@H](c4ccc(=O)n(C5CC5)c4)C3)nc(C34CC(C(F)(F)F)(C3)C4)c2cc1C(F)(F)F [Example 328, 1-cyclopropyl-5-((2R,4S)-4-(7-methyl-6-(trifluoromethyl)-4-(3-(trifluoromethyl)bicyclo[1.1.1]-pentan-1-yl)pyrido[2,3-d]pyrimidin-2-yl)tetrahydro-2H-pyran-2-yl)pyridin-2(1H)-one]
16 | < 100 nM | Cc1nc2nc([C@H]3CCO[C@@H](c4ccc(=O)[nH]c4)C3)nc(C34CC(C(F)(F)F)(C3)C4)c2cc1C(F)(F)F [Example 330, 5-((2R,4S)-4-(7-methyl-6-(trifluoromethyl)-4-(3-(trifluoromethyl)bicyclo[1.1.1]pentan-1-yl)pyrido[2,3-d]pyrimidin-2-yl)tetrahydro-2H-pyran-2-yl)pyridin-2(1H)-one]
17 | < 100 nM | Cc1nc2nc([C@H]3CCO[C@@H](c4ccc(=O)n(N)c4)C3)nc(C34CC(C(F)(F)F)(C3)C4)c2cc1C(F)(F)F [Example 332, 1-amino-5-((2R,4S)-4-(7-methyl-6-(trifluoromethyl)-4-(3-(trifluoromethyl)bicyclo[1.1.1]pentan-1-yl)pyrido[2,3-d]pyrimidin-2-yl)tetrahydro-2H-pyran-2-yl)pyridin-2 (1H)-one]
18 | < 100 nM | [2H]C([2H])([2H])n1cc([C@H]2C[C@@H](c3nc(C45CC(C(F)(F)F)(C4)C5)c4cc(C(F)(F)F)c(C)nc4n3)CCO2)ccc1=O [Example 334, 1-(methyl-d3)-5-((2R,4S)-4-(7-methyl-6-(trifluoromethyl)-4-(3-(trifluoromethyl)bicyclo[1.1.1]pentan-1-yl)pyrido[2,3-d]pyrimidin-2-yl)tetrahydro-2H-pyran-2-yl)pyridin-2(1H)-one]
19 | < 100 nM | Cc1nc2nc([C@H]3CCO[C@@H](c4ccc(=O)n(N(C)C)c4)C3)nc(C34CC(C(F)(F)F)(C3)C4)c2cc1C(F)(F)F [Example 336, 1-(dimethylamino)-5-((2R,4S)-4-(7-methyl-6-(trifluoromethyl)-4-(3-(trifluoromethyl)bicyclo-[1.1.1]pentan-1-yl)pyrido[2,3-d]pyrimidin-2-yl)tetrahydro-2H-pyran-2-yl)pyridin-2 (1H)-one]
